The numbers were not newly measured in patent US9834484B1, “Plant enhancer and a method of using the same” (priority 2016, dated 2017), which cites them from elsewhere.

This data set relates to tumor growth. The note with it: some studies show.

For the substance β-glucan, the inhibits tumor growth result is “more than 95%”.
